Data taken from publication PMC11243039, “Antimicrobial, Antioxidant, and Antityrosinase Activities of Morina persica L. and Its Isolated Compounds” (Molecules, 2024).
Converted amounts (≈) assume the structure as drawn.

Target: T1, mushroom tyrosinase
T1 construct: gene PPO3; native mushroom enzyme preparation
Assay: absorbance at […] nm, L-DOPA oxidation (modified Masuda method)
Assay type: biochemical
Details: L-DOPA substrate, phosphate buffer pH 6.8, 23 °C, 10 min preincubation

With `O=c1c(O[C@@H]2O[C@H](CO)[C@@H](O)[C@H](O)[C@H]2O)c(-c2ccc(O)cc2)oc2cc(O)cc(O)c12` [MP-1, Kaempferol-3-O-β-glucopyranoside] the “IC50” value was 297.9 ± 1.2 mg/L (≈ 664 µM).
With `C[C@@H]1O[C@@H](OC[C@H]2O[C@@H](Oc3c(-c4ccc(O)c(O)c4)oc4cc(O)cc(O)c4c3=O)[C@H](O)[C@@H](O)[C@@H]2O)[C@H](O)[C@H](O)[C@H]1O` [MP-2, Quercetin-3-O-rutinoside] the “IC50” value was 115.2 ± 0.8 mg/L (≈ 189 µM).
